Laboratory results as given in patent US20240316053A1, “USE OF FOLATE DERIVATIVE IN PREPARATION OF DRUG FOR TREATING CONTACT LENS DISCOMFORT AND DRY EYE” (LIANYUNGANG JINKANG HEXIN PHARMACEUTICAL CO., LTD., priority 2021, published 2024).

Assays:
[1] = test system: mice with chronic dry eye; experiment: Corneal fluorescein staining in mice with chronic dry eye; format: in vivo; settings: 10th day after treatment
Text: It can be seen that a suitable animal model of dry eye is very important, and it is impossible to show the true state of dry eye or contact lens discomfort only by destroying the lacrimal gland or modeling with hypertonic saline. The mouse model of dry eye constructed under specific environmental conditions is closest to the real situation. 120 female BALB/c mice aged 8-12 weeks were placed in an isolated and sealed cage with an opening on the top. Air dried through anhydrous CaSO4 was pumped into the cage by an air pump, where the air humidity RH=19.5%±5%, the flow rate was 15 L/min, and the temperature was 21-23° C. The mice in the dry and windy environment were taken out on the 5th, 15th and 30th day respectively. The production of tears was measured by phenol red thread test, and compared with that of the mice raised in standard cages in normal environment. Meanwhile, the cornea of the mice were stained with fluorescein, and the punctate staining was recorded in the cornea.
(§1) The experiment was divided into 3 groups. 20 mice with chronic dry eye in Example 2 were divided into a 5-methylterahydrofolic acid group (group A, n=10), and an arginine group (group B, n=10). 4 normal mice were taken as the control group. Each eye of the mice in group A was dripped with 5 μL of 5-methylterahydrofolic acid eye drop every day, each eye of the mice in group B was dripped with 5 μL of 0.5% arginine eye drop every day, and each eye of the mice in group C was dripped with 5 μL of a phosphate buffer every day. Tears were collected on the 3rd, 5th, 7th and 10th day after treatment, and the secretion of tears was detected. On the 10th day after treatment, the cornea of the mice in each group were stained with fluorescein.
The experiment was divided into 4 groups. […] Tears were collected on the 3rd, 5th, 7th and 10th day after treatment, and the secretion of tears was detected. […]

Stability in water = format: physicochemical
[2] = test system: symptomatic contact lens wearers; experiment: Follow-up of degree of discomfort of wearing contact lenses; format: in vivo, human; settings: group A (n=4), oral 5 mg calcium salt of 6S-5-methylterahydrofolic acid/tablet every day, contact lenses worn after 3 days
Experimental: A total of 10 adults suffering from contact lens discomfort were included in the study. Among them, 8 felt uncomfortable when wearing contact lenses, and 2 were asymptomatic contact lens wearers. The contact lenses worn by the participants were all silicone hydrogel-based contact lenses. All the participants were in good health. The symptoms and severity of eye discomfort were evaluated by the ocular surface disease index (OSDI), and whether there were symptoms such as inflammation in the eyes was checked by an optometrist.
(§2) The symptomatic contact lens wearers were divided into 2 groups, that is, group A (n=4) and group B (n=4). The asymptomatic contact lens wearers were assigned to group C The participants in each group didn't wear contact lenses for 24 hours, and then the tears were collected. Dietary supplements containing 5 mg calcium salt of 6S-5-methylterahydrofolic acid/tablet were orally taken by the participants in group A every day. After 3 days, the participants in each group began to wear contact lenses, and the tears were collected after 6 hrs. The contents of IL-2, IL-6, IL-17, and TNF-α were detected (ELISA method). The participants in each group were followed up to determine the degree of discomfort of wearing contact lenses.

IL-17 [3] = experiment: Inflammatory factors on ocular surface of mice with chronic dry eye (ELISA); format: in vivo; settings: Example 3, 0.5% eye drop, cornea, conjunctiva and draining lymph node, FIG. 6
Experimental: as §1
After treatment, the animals were euthanized, and the eye tissues such as cornea, lacrimal gland and meibomian gland were taken out and washed in PBS. The cornea, conjunctiva and draining lymph node were collected and stored in cold sterile PBS at −80° C. The samples were homogenized and centrifuged on ice. The levels of […], IL-17 and IL-6 in the supernatant were determined by ELISA kit (Raybiotech).

IL-17 [4] = experiment: IL-17 content in tears of contact lens wearers (ELISA); format: in vivo, human; settings: symptomatic wearers, oral 5 mg/tablet daily, tears collected after 6 hrs of lens wear, FIG. 1
Experimental: as §2

TNF-α = experiment: Semi-quantitative RT-PCR in ipsilateral trigeminal ganglion of mice with chronic dry eye; format: in vivo; settings: Example 3, 0.5% eye drop, FIG. 7
Experimental: as §1
(§3) The ipsilateral trigeminal ganglion and trigeminal trunk of the eye of the mice were dissected quickly on ice, immediately frozen with liquid nitrogen, and stored at −80° C. RNA was extracted from ipsilateral trigeminal ganglion and trigeminal trunk by using NucleoSpin RNA purification II kit (NucleoSpin RNAS, Germany), and PCR amplification was carried out with mouse-specific cDNAs for matrix metalloproteinases MMP-9, MMP-2, and TNF-α. For each primer, the reaction was stopped after 24, 28, 32, 36, or 40 cycles, so as to ensure that the PCR products were within the linear range of the amplification curve, and semi-quantitative RT-PCR for the expression of related genes was realized.

MMP-2 = experiment: as above; format: in vivo; settings: Example 3, 0.5% eye drop, FIG. 7
Experimental: as §1, §3

MMP-9 = experiment: as above; format: in vivo; settings: Example 3, 0.5% eye drop, FIG. 7
Experimental: as §1, §3

[5] = Example 3, 0.5% eye drop, 5 μL per eye every day, FIG. 5

**Q.** Which results are given for `CN1c2c(nc(N)[nH]c2=O)NC[C@@H]1CNc1ccc(C(=O)N[C@@H](CCC(=O)O)C(=O)O)cc1.N=C(N)NCCC[C@H](N)C(=O)O` [arginine 5-methylterahydrofolate, arginine 6S-5-methylterahydrofolate]?
**A.** corneal injury (fluorescein staining) ([1]; Example 4, eye drops, FIG. 9): can improve the corneal injury, with a significant difference from the baseline state; stability in water (Stability in water): very poor

**Q.** For `N=C(N)NCCC[C@H](N)C(=O)O` [arginine, reference compound], which “corneal injury (fluorescein staining)” value [1, 5] is on record?
**A.** The value was “can not significantly improve the ocular surface damage”.

**Q.** For `CN1c2c(nc(N)[nH]c2=O)NCC1CNc1ccc(C(=O)N[C@@H](CCC(=O)O)C(=O)O)cc1` (some centres unmarked) [5-methylterahydrofolic acid], which “participants saying that the contact lens discomfort almost disappears” value [2] is on record?
**A.** Its value is 3 participants.

**Q.** And the “participants thinking that the effect is not significant” value [2]?
**A.** Its value is 1 case.

**Q.** What about the “corneal injury (fluorescein staining)” value [1, 5] of the same molecule?
**A.** Its value is “can improve the corneal injury with a significant difference from the baseline state”.

**Q.** What about the “IL-17 inflammatory factor on ocular surface” value (IL-17 [3]) of the same molecule?
**A.** Its value is “can significantly reduce IL-17 inflammatory factor”.

**Q.** What about the “level of IL-17 in tears” value (IL-17 [4]) of the same molecule?
**A.** The value was “can reduce the level of IL-17 in tears”.

**Q.** What about the “TNF-α gene expression in trigeminal nerve” value (TNF-α) of the same molecule?
**A.** Its value is “a certain inhibitory effect on TNF-α”.

**Q.** What about the “MMP-2 gene expression in trigeminal nerve” value (MMP-2) of the same molecule?
**A.** The value was “can significantly inhibit the MMP-2 gene expression”.

**Q.** And the “MMP-9 gene expression in trigeminal nerve” value (MMP-9)?
**A.** Its value is “not on MMP-9 significantly”.
